Assay [1] addresses T1, human B1R receptor (hB1R) (Homo sapiens, UniProt P46663).
T1 construct: host or cells: CHO K1 cells
T1 sequence (P46663 1-353): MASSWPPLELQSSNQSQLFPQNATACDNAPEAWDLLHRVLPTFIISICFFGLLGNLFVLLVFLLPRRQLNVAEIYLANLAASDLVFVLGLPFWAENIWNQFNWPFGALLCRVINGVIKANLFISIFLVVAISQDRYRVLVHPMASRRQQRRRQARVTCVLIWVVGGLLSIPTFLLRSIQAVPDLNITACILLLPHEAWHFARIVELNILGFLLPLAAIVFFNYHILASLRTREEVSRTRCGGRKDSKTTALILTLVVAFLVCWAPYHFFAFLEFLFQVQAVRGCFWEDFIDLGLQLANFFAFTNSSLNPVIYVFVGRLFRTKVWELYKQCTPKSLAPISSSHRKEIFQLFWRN
As to the kind of experiment: FLIPR Ca2+ assay on hB1R-transfected CHO K1 cells, antagonistic action. The class given is cell-based. To be noted: CHO-K1, 10 μM test substance; agonist Lys-Des-Arg9-bradykinin 0.5 nM; % of maximum achievable inhibition; read-out: hB1R [10 μM] % inhibition.

The target of assay [2] is T2, B1R receptor of the rat (rB1R) (Rattus norvegicus, UniProt P97583).
T2 construct: host or cells: CHO K1 cells
T2 sequence (P97583 1-337): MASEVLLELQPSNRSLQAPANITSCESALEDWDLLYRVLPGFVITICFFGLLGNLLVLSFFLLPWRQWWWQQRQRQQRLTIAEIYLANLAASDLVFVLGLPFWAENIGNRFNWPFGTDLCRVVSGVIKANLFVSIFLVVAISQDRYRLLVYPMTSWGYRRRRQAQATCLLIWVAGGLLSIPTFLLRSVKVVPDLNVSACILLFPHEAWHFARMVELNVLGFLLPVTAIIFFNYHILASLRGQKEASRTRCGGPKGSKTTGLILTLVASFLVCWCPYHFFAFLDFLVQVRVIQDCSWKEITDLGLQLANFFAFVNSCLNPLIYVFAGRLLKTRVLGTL
As to the kind of experiment: FLIPR Ca2+ assay on rB1R-transfected CHO K1 cells, antagonistic action. The class given is cell-based. To be noted: CHO-K1, 10 μM test substance; agonist Des-Arg9-bradykinin 100 nM; % of maximum achievable inhibition; read-out: rB1R [10 μM] % inhibition.

Structures are written as SMILES.

The results in this text go back to patent US20090253669A1, “Substituted Sulfonamide Compounds” (GRUENENTHAL GmbH, priority 2008, published 2009).

Usually inhibition stands for the relative decrease from the control value, in per cent.

As to `CN1CCN(C2(CCc3ccccc3)CCC(CN(C)C(=O)COCCN(C)S(=O)(=O)c3c(Cl)cc(Cl)cc3Cl)CC2)CC1` (stereo not drawn) [Compound 195, N-methyl-N-((4-(4-methylpiperazin-1-yl)-4-phenethylcyclohexyl)methyl)-2-(2-(2,4,6-trichloro-N-methylphenylsulfonamido)ethoxy)acetamide], the inhibition at 10 µM in assay [1] came to 100%; in assay [2] it was 28%.

For `CN(CCC1CCC(Cc2ccccc2)(N2CCCC2)CC1)C(=O)CC1CCCCN1S(=O)(=O)c1cccc(C(F)(F)F)c1` (stereo not drawn) [Compound 121, N-(2-(4-benzyl-4-(pyrrolidin-1-yl)cyclohexyl)ethyl)-N-methyl-2-(1-(3-(trifluoromethyl)phenylsulfonyl)piperidin-2-yl)acetamide], the inhibition at 10 µM in assay [1] was 102%; in assay [2], 66%.

`COc1cc(C)c(S(=O)(=O)N2CCC(OCC(=O)NC3CCC(Cc4ccccc4)(N4CCCCC4)CC3)C2)c(C)c1` (stereo not drawn) [Compound 18, N-(4-benzyl-4-(piperidin-1-yl)cyclohexyl)-2-(1-(4-methoxy-2,6-dimethylphenylsulfonyl)pyrrolidin-3-yloxy)acetamide]: the inhibition at 10 µM was 68% in assay [1] and 74% in assay [2].

For `CN1CCN(C2(c3cccc(F)c3)CCN(C(=O)COCC3COc4ccccc4N3S(=O)(=O)c3ccccc3C(F)(F)F)CC2)CC1` (stereo not drawn) [Compound 223, 1-(4-(3-Fluorophenyl)-4-(4-methylpiperazin-1-yl)piperidin-1-yl)-2-((4-(2-(trifluoromethyl)phenylsulfonyl)-3,4-dihydro-2H-benzo[b][1,4]oxazin-3-yl)methoxy)ethanone], the inhibition at 10 µM came to 84% in assay [1] and 97% in assay [2].

Consider `COc1cc(C)c(S(=O)(=O)N(C)CCOCC(=O)NC2CCC(Cc3ccccc3C)(N(C)C)CC2)c(C)c1` (stereo not drawn) [Compound 10, N-(4-(dimethylamino)-4-(2-methylbenzyl)cyclohexyl)-2-(2-(4-methoxy-N,2,6-trimethylphenylsulfonamido)ethoxy)acetamide], for which the results for the inhibition at 10 µM in assay [1] and in assay [2] were 103% and 95%, respectively.

With `COc1cc(C)c(S(=O)(=O)N2CCCC(OCC(=O)NC3CCC(Cc4ccccc4)(N4CCCC4)CC3)C2)c(C)c1` (stereo not drawn) [Compound 181, N-(4-benzyl-4-(pyrrolidin-1-yl)cyclohexyl)-2-(1-(4-methoxy-2,6-dimethylphenylsulfonyl)piperidin-3-yloxy)acetamide], the inhibition at 10 µM in assay [1] was 78%; in assay [2], 71%.

`COc1cc(C)c(S(=O)(=O)N2CCCC2COCC(=O)NCC2CCC(Cc3ccccc3)(N3CCOCC3)CC2)c(C)c1` (stereo not drawn) [Compound 169, N-((4-benzyl-4-morpholinocyclohexyl)methyl)-2-((1-(4-methoxy-2,6-dimethylphenylsulfonyl)pyrrolidin-2-yl)methoxy)acetamide]: the inhibition at 10 µM in assay [1] turned out to be 41%; in assay [2], 86%.

For `COc1cc(C)c(S(=O)(=O)N(C)CCOCC(=O)N2CCC(c3ccncc3)(N(C)C)CC2)c(C)c1` [Compound 206, N-(2-(2-(4-(dimethylamino)-4-(pyridin-4-yl)piperidin-1-yl)-2-oxoethoxy)ethyl)-4-methoxy-N,2,6-trimethylbenzenesulfonamide], the results for the inhibition at 10 µM in assay [1] and in assay [2] were 100% and 99%, respectively.

As to `COc1cc(C)c(S(=O)(=O)N(C)CCOCC(=O)N(C)CCC2CCC(Cc3ccccc3)(N3CCCC3)CC2)c(C)c1` (stereo not drawn) [Compound 39, N-(2-(4-benzyl-4-(pyrrolidin-1-yl)cyclohexyl)ethyl)-2-(2-(4-methoxy-N,2,6-trimethylphenylsulfonamido)ethoxy)-N-methylacetamide], the inhibition at 10 µM in assay [1] was found to be 105%; in assay [2], 101%.

`COc1cc(C)c(S(=O)(=O)N(C)CCOCC(=O)N2CCC(c3cccnc3)(N(C)C)CC2)c(C)c1` [Compound 208, N-(2-(2-(4-(Dimethylamino)-4-(pyridin-3-yl)piperidin-1-yl)-2-oxoethoxy)ethyl)-4-methoxy-N,2,6-trimethylbenzenesulfonamide]: the inhibition at 10 µM worked out at 100% in assay [1] and 102% in assay [2].

As for `CN(CC1CCC(c2ccccc2)(N2CCCC2)CC1)C(=O)CC(NS(=O)(=O)c1ccc2ccccc2c1)c1ccccc1` (stereo not drawn) [Compound 92, N-methyl-3-(naphthalene-2-sulfonamido)-3-phenyl-N-((4-phenyl-4-(pyrrolidin-1-yl)cyclohexyl)methyl)propanamide], the inhibition at 10 µM in assay [1] was 101%; in assay [2] it was 95%.

`COc1cc(C)c(S(=O)(=O)N2CCC(OCC(=O)NCC3CCC(c4ccccc4)(N4CCOCC4)CC3)C2)c(C)c1` (stereo not drawn) [Compound 173, 2-(1-(4-methoxy-2,6-dimethylphenylsulfonyl)pyrrolidin-3-yloxy)-N-((4-morpholino-4-phenylcyclohexyl)methyl)acetamide]: the inhibition at 10 µM came to 64% in assay [1] and 78% in assay [2].

On to `COc1cc(C)c(S(=O)(=O)N2CCCC(COCC(=O)N(C)CC3CCC(CCc4ccccc4)(N4CCN(C)CC4)CC3)C2)c(C)c1` (stereo not drawn) [Compound 182, 2-((1-(4-methoxy-2,6-dimethylphenylsulfonyl)piperidin-3-yl)methoxy)-N-methyl-N-((4-(4-methylpiperazin-1-yl)-4-phenethylcyclohexyl)methyl)acetamide], for which the values for the inhibition at 10 µM in assay [1] and in assay [2] were 106% and 67%, respectively.

Take `CN1CCN(C2(Cc3ccccc3)CCC(CN(C)C(=O)COCC3CCCCN3S(=O)(=O)c3c(Cl)cc(Cl)cc3Cl)CC2)CC1` (stereo not drawn) [Compound 162, N-((4-benzyl-4-(4-methylpiperazin-1-yl)cyclohexyl)methyl)-N-methyl-2-((1-(2,4,6-trichlorophenylsulfonyl)piperidin-2-yl)methoxy)acetamide]: the inhibition at 10 µM is 102% in assay [1] and 94% in assay [2].

With `CN(CCCC1CCC(c2ccccc2)(N2CCCC2)CC1)C(=O)CC(NS(=O)(=O)c1ccc2ccccc2c1)c1ccccc1` (stereo not drawn) [Compound 128, N-methyl-3-(naphthalene-2-sulfonamido)-3-phenyl-N-(3-(4-phenyl-4-(pyrrolidin-1-yl)cyclohexyl)propyl)propanamide], the inhibition at 10 µM was found to be 98% in assay [1] and 53% in assay [2].

With `COc1cc(C)c(S(=O)(=O)N2CCCCC2COCC(=O)NC2CCC(Cc3ccccc3)(N3CCOCC3)CC2)c(C)c1` (stereo not drawn) [Compound 155, N-(4-benzyl-4-morpholinocyclohexyl)-2-((1-(4-methoxy-2,6-dimethylphenylsulfonyl)piperidin-2-yl)methoxy)acetamide], the inhibition at 10 µM in assay [1] was 97%; in assay [2], 100%.

With `Cc1cc(S(=O)(=O)N2CCCCC2CCC(=O)N2CCC(Cc3ccccc3)(N(C)C)CC2)c(C)cc1Cl` (stereo not drawn) [Compound 80, 1-(4-benzyl-4-(dimethylamino)piperidin-1-yl)-3-(1-(4-chloro-2,5-dimethylphenylsulfonyl)piperidin-2-yl)propan-1-one], the inhibition at 10 µM in assay [1] was 86%; in assay [2], 99%.

For the molecule `COc1cc(C)c(S(=O)(=O)N(C)CCOCC(=O)N2CCC(N)(c3ccccc3)CC2)c(C)c1` [Compound 196, N-(2-(2-(4-Amino-4-phenylpiperidin-1-yl)-2-oxoethoxy)ethyl)-4-methoxy-N,2,6-trimethylbenzenesulfonamide], the inhibition at 10 µM was found to be 103% in assay [1] and 100% in assay [2].
